The values below come from patent publication US12679878B2, “CRF2 receptor agonists and their use in therapy” (SANOFI, priority 2020, dated 2026).

Where two headings read alike, the source gives them in different places. Starred links: 1 amine or outer side, 2 acyl side, 3 side chain; linkers in the order of their positions; H or OH if unused. Residues, ends and D or L forms follow the SMILES beside them. Groups on a side chain read outwards from the residue. *: point of attachment. C18 diacid = O=C(O)CCCCCCCCCCCCCCCCC(=O)*; γGlu = O=C(O)[C@H](CCC(=O)[*:2])N[*:1]; Palmitoyl = CCCCCCCCCCCCCCCC(=O)*; AEEA = NCCOCCOCC(=O)O Bounds are passed on as bounds.

The target in one series is T1, recombinant human CRF2 (Homo sapiens, UniProt Q13324).
T1 construct: expressed in transfected cells; host or cells: HEK
T1 sequence (Q13324 1-411): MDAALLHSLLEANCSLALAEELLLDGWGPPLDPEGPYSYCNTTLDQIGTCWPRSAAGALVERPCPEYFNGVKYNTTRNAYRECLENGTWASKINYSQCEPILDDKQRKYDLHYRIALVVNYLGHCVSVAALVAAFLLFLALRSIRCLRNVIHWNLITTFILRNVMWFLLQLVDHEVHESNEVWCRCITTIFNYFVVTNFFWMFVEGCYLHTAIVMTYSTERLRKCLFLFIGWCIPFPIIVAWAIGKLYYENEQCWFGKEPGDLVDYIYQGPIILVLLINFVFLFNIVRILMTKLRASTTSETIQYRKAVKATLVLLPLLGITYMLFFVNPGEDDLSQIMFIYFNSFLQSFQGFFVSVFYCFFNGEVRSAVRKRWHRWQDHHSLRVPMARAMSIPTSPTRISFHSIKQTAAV
As to the kind of experiment: CRF2a (h) agonist radioligand binding, [125]sauvagine, HEK cell membranes (Example 11). As to conditions: for nH (Hill coefficient): competition with [125]sauvagine 0.1 nM. Here is the method:
Receptor binding of the compounds was assessed using a CRF2a (h) (agonist radioligand) assay.
HEK cells expressing recombinant human CRF2 were used as a source of receptor for membrane preparation.
IC50 values (concentration causing a half-maximal inhibition of control specific binding) and Hill coefficients (nH) were determined by non-linear regression analysis of the competition curves generated with mean replicate values using Hill equation curve fitting. The inhibition constants (Ki) were calculated using the Cheng Prusoff equation [Ki=IC50/(1+L/KD) where L is the concentration of radioligand in the assay, and KD is the affinity of the radioligand for the receptor). A Scatchard plot was used to determine the KD.

Another series addresses T2, human CRF2α receptor (Homo sapiens, UniProt Q13324).
T2 construct: expressed in transfected cells; host or cells: TeloHEAC
T2 sequence (Q13324 1-411): T1 sequence (Q13324 1-411)
As to the kind of experiment: cAMP agonism at human CRF2 α receptor in TeloHEAC cells (Example 7). It is filed as cell-based. As to conditions: cAMP HTRF, TeloHEAC cells stably expressing human CRF2 α. The procedure, abridged: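 Cryopreserved cells are thawed, washed and resuspended in IBMX-containing (2 mM) HEPES-buffered HBSS with or without 0.1% HSA. Compound incubation runs 30 min at room temperature with 2000 cells per well, then cAMP is measured by time-resolved FRET. Potency is expressed as EC50, efficacy relative to urocortin 2 at 1000 nM.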

Series [1] is described as follows: Solubility in buffer systems by UPLC-UV (Example 13). It counts as physicochemical. In outline: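 Quantitation used UV peak area from UPLC of the 1:10-diluted supernatant, set against a reference-compound standard curve with extinction coefficients adjusted for amino acid sequence.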
The target of a further series is T3, CRF1R receptor (Homo sapiens, UniProt P34998).
T3 construct: host or cells: CHO-K1 clone 2
T3 sequence (P34998 24-415): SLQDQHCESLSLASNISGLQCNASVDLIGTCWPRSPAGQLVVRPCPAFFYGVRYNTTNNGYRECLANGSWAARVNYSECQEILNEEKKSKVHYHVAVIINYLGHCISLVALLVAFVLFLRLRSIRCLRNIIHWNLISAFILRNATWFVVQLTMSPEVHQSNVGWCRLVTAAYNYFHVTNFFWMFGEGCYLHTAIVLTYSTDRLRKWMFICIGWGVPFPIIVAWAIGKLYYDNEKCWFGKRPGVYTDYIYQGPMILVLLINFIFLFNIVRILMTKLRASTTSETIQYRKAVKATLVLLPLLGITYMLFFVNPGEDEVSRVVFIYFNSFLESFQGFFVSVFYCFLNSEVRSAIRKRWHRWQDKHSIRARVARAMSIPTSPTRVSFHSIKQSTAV
Kind of series: cAMP activity at anti-target CRF1R, CRF1R-overexpression CHO cell line (Example 9). It counts as cell-based. In outline: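 Using thawed CRF1R-overexpressing CHO cells at 2000 per well, compound is applied for 30 min at RT in HBSS/HEPES buffer with IBMX. Cellular cAMP content is determined via HTRF, and percent activity is calculated against 1000 nM UCN2 defined as 100%.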

The next series has as its system rat CRF2R α receptor. As to the kind of experiment: cAMP agonism at rat CRF2R α receptor in A7R5 rat aortic smooth muscle cells (Example 8). It is filed as cell-based. As to conditions: cAMP HTRF, A7R5 rat aortic smooth muscle cell line, 0% HSA. The procedure, abridged:
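Potency (EC50) is the concentration reaching half-maximal activation, with responses scaled so that 1000 nM urocortin 2 equals 100%. Intracellular cAMP was quantified by homogeneous time-resolved fluorescence at 665/620 nm, 1 h after lysis-buffer reagents. Compound stimulation lasted 30 min at room temperature on 2000 IBMX-treated (2 mM) cells per well in HEPES-buffered HBSS.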
Background: In TR-FRET formats the signal depends on donor and acceptor labels being close together.

Series [2] can be described thus: Chemical stability, purity loss by UPLC-UV after 28 days at 40° C. vs 5° C., pH 4.5 acetate buffer (Example 12). It counts as physicochemical. As to conditions: 28 days 40° C. vs 5° C.; pH 4.5, 20 mM acetate buffer; 300 μM. The procedure, abridged:
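300 μM compound (purity-corrected) in 20 mM acetate buffer, pH 4.5, stored 28 days at 5 and 40° C. Purity by UPLC-UV as compound peak area over total peak area. Value is the purity difference between 5° C. and 40° C. samples, relative to the 5° C. purity, in percent.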

The mark [3] stands for this setting: 0% HSA, read-out: EC50 [nM], 0% HSA.
Where [4] appears, read: pH 7.4, Solubility in Buffer C [mg/ml].

In general, EC50 refers to the concentration needed to bring the measured effect to its halfway point. For orientation: solubility means the dissolved amount per volume that the medium holds. As usually defined, the Emax is the size of the effect at its maximum, as opposed to the concentration needed. One may read the Ki as the dissociation constant of the complex between target and ligand, obtained from inhibition or displacement.

Turning to `CCCCCCCCCCCCCCCC(=O)N[C@@H](CCC(=O)NCCCC[C@H](NC(=O)[C@H](CC(C)C)NC(=O)[C@H](CCCCN)NC(=O)[C@@H](NC(=O)[C@@H]1CCCN1C(=O)[C@@H](NC(=O)[C@H](CC(=O)O)NC(=O)[C@H](CC(C)C)NC(=O)[C@H](CO)NC(=O)[C@H](CC(C)C)NC(=O)[C@@H](NC(=O)[C@@H](N)[C@@H](C)CC)C(C)C)C(C)C)[C@@H](C)CC)C(=O)N[C@@H](CCCCN)C(=O)N[C@H](C(=O)N[C@@H](CC(C)C)C(=O)N[C@@H](CC(C)C)C(=O)N[C@@H](CCC(=O)O)C(=O)N[C@@H](CCC(N)=O)C(=O)N[C@@H](CCC(=O)O)C(=O)N[C@@H](CCCCN)C(=O)N[C@@H](CCC(N)=O)C(=O)N[C@@H](CCCCN)C(=O)N[C@@H](CCCCN)C(=O)N[C@@H](CCC(N)=O)C(=O)N[C@@H](CCCNC(=N)N)C(=O)N[C@@H](CCC(=O)O)C(=O)N[C@@H](CCC(N)=O)C(=O)N[C@@H](C)C(=O)N[C@@H](CCC(=O)O)C(=O)N[C@H](C(=O)N[C@@H](CC(N)=O)C(=O)N[C@@H](CCCCN)C(=O)N[C@@H](CCC(N)=O)C(=O)N[C@H](C(=O)N[C@@H](CC(C)C)C(=O)N[C@@H](C)C(=O)N[C@@H](CCC(N)=O)C(=O)N[C@H](C(N)=O)C(C)C)[C@@H](C)CC)[C@@H](C)O)[C@@H](C)CC)C(=O)O` [compound 17] (H-IVLSLDVPIKLK([γGlu-Palmitoyl])KILLEQEKQKKQREQAETNKQILAQV-NH2; N-terminus assumed), the “nH (Hill coefficient)” value on recombinant human CRF2 is listed as 1.5. Also, the EC50 on human CRF2α receptor (setting [3]) came out at 0.02 nM. In addition, the solubility at 1 h in series [1] (setting [4]) is > 10700 µg/mL.
With `CC[C@H](C)[C@H](NC(=O)[C@H](CCC(N)=O)NC(=O)[C@H](CCC(=O)O)NC(=O)[C@H](CC(C)C)NC(=O)[C@H](CC(C)C)NC(=O)[C@H](CCC(N)=O)NC(=O)[C@H](CCCCN)NC(=O)[C@H](CC(N)=O)NC(=O)[C@H](CCCCN)NC(=O)[C@H](CCC(=O)O)NC(=O)[C@H](C)NC(=O)[C@H](CCC(N)=O)NC(=O)[C@H](CCC(N)=O)NC(=O)[C@H](CCCNC(=N)N)NC(=O)[C@H](CCC(=O)O)NC(=O)[C@H](CCCCN)NC(=O)[C@H](CCCCN)NC(=O)[C@H](CCC(N)=O)NC(=O)[C@H](CCCCN)NC(=O)[C@H](CCC(N)=O)NC(=O)[C@H](CCC(N)=O)NC(=O)[C@H](CCCCN)NC(=O)[C@H](CC(C)C)NC(=O)[C@H](CC(C)C)NC(=O)[C@@H](NC(=O)[C@H](CCC(N)=O)NC(=O)[C@H](CCCCNC(=O)COCCOCCNC(=O)COCCOCCNC(=O)CC[C@H](NC(=O)CCCCCCCCCCCCCCCCC(=O)O)C(=O)O)NC(=O)[C@@H](NC(=O)[C@H](CCCCN)NC(=O)[C@@H](NC(=O)[C@@H]1CCCN1C(=O)[C@@H](NC(=O)[C@H](CC(=O)O)NC(=O)[C@H](CC(C)C)NC(=O)[C@H](CO)NC(=O)[C@H](CC(C)C)NC(=O)[C@@H](NC(=O)[C@@H](N)Cc1ccccc1)[C@@H](C)O)C(C)C)[C@@H](C)O)[C@@H](C)CC)[C@@H](C)CC)C(N)=O` [compound 51] (H-FTLSLDVPTKIK([AEEA-AEEA-γGlu-C18 diacid])QILLKQQKQKKERQQAEKNKQLLEQI-NH2; N-terminus assumed), at CRF1R receptor (CHO), the Emax worked out at 3.38%. In addition, on recombinant human CRF2, the Ki stood at 4.3 nM. Besides, the “nH (Hill coefficient)” value at recombinant human CRF2 is on record as 0.8. In addition, the EC50 was determined as 0.32 nM at human CRF2α receptor (setting [3]); 21.4 nM on human CRF2α receptor (0.1% HSA, read-out: EC50 [nM], 0.1% HSA); 0.87 nM in the series on rat CRF2R α receptor. In addition, the solubility at 1 h in series [1] (Buffer B: 100 mM acetate buffer, pH 4.5, 2.7 mg/ml m-cresol, target 10 mg/ml, read-out: Solubility in Buffer B) is > 8800 µg/mL; in series [1] (Buffer C: 100 mM phosphate buffer, pH 7.4, target 10 mg/ml, read-out: Solubility in Buffer C) it was > 7700 µg/mL.
In the case of `CC[C@H](C)[C@H](N)C(=O)N[C@H](C(=O)N[C@@H](CC(C)C)C(=O)N[C@@H](CO)C(=O)N[C@@H](CC(C)C)C(=O)N[C@@H](CC(=O)O)C(=O)N[C@H](C(=O)N1CCC[C@H]1C(=O)N[C@H](C(=O)N[C@@H](CCCCN)C(=O)N[C@@H](CC(C)C)C(=O)N[C@@H](CCCCNC(=O)COCCOCCNC(=O)COCCOCCNC(=O)CC[C@H](NC(=O)CCCCCCCCCCCCCCCCC(=O)O)C(=O)O)C(=O)N[C@@H](CCC(N)=O)C(=O)N[C@H](C(=O)N[C@@H](CC(C)C)C(=O)N[C@@H](CC(C)C)C(=O)N[C@@H](CCC(=O)O)C(=O)N[C@@H](CCC(N)=O)C(=O)N[C@@H](CCC(=O)O)C(=O)N[C@@H](CCCNC(=N)N)C(=O)N[C@@H](CCC(N)=O)C(=O)N[C@@H](CCCCN)C(=O)N[C@@H](CCCCN)C(=O)N[C@@H](CCC(N)=O)C(=O)N[C@@H](CCCNC(=N)N)C(=O)N[C@@H](CCC(=O)O)C(=O)N[C@@H](CCC(N)=O)C(=O)N[C@@H](C)C(=O)N[C@@H](CCC(=O)O)C(=O)N[C@H](C(=O)N[C@@H](CC(N)=O)C(=O)N[C@@H](CCCCN)C(=O)N[C@@H](CCC(N)=O)C(=O)N[C@H](C(=O)N[C@@H](CC(C)C)C(=O)N[C@@H](C)C(=O)N[C@@H](CCC(N)=O)C(=O)N[C@H](C(N)=O)C(C)C)[C@@H](C)CC)[C@@H](C)O)[C@@H](C)CC)[C@@H](C)CC)C(C)C)C(C)C` [compound 68] (H-IVLSLDVPIKLK([AEEA-AEEA-γGlu-C18 diacid])QILLEQERQKKQREQAETNKQILAQV-NH2; N-terminus assumed), the concentration for a half-maximal effect (EC50) at CRF1R receptor (0% HSA, CRF1R-overexpression CHO cell line) is > 1000 nM; on human CRF2α receptor (setting [3]) it was 0.2 nM; in the series on rat CRF2R α receptor it was 1.74 nM. The Emax on CRF1R receptor (CRF1R-overexpression CHO cell line, read-out: Emax (%)) was 12.3%. Besides, the “nH (Hill coefficient)” value on recombinant human CRF2 was 0.8. Besides, the “Relative purity loss [%]” value in series [2] is 6.00%. The solubility at 1 h in series [1] (pH 4.5, Solubility in Buffer B [mg/ml]) is > 9800 µg/mL; in series [1] (setting [4]), > 8900 µg/mL.
